Legend:
B16F10 mouse melanoma = test: SPECT/CT imaging of mice bearing B16F10 mouse melanoma; assay type: in vivo, C57BL/6J mice; conditions: 24 h p.i.
Description: SPECT/CT imaging experiments were conducted using a preclinical U-SPECT-II/CT scanner (MILabs). For SPECT scans, each tumour-bearing mouse was injected with approximately 37 MBq of ^177Lu-labeled αMSH analogues via tail vein under anesthesia. After the injection, mice were allowed to recover and roam freely in their cages. At 1, 4, 24, and 120 h p.i., the mice were sedated again with 2% isoflurane inhalation and positioned in the scanner, and kept warm by a heating pad. A 3 min CT scan was conducted to acquire anatomical information, followed by a 60 min static emission scan in list mode with an extra ultrahigh-sensitivity multipinhole mouse collimator. The images were reconstructed using the ordered subset expectation maximization algorithm (4 iterations, 32 subsets) and a 1 mm post-processing Gaussian filter. The radioactivity in the SPECT scans were decay corrected to the injection time in the PMOD software, and converted to DICOM for quantitation and visualization in the Inveon Research Workplace software (Siemens). SPECT images of all six αMSH analogues radiolabeled with ^177Lu in mice bearing B16F10 mouse melanoma at 24 h p.i. are showing in FIG. 5. […] The sustained tumour uptake is particularly beneficial for radioligand therapy.

SK-MEL-1 human melanoma = test: SPECT/CT imaging of mice bearing SK-MEL-1 human melanoma; assay type: in vivo, NRG mice; conditions: 24 h p.i.
Description: SPECT/CT imaging experiments were conducted using the same conditions as described in Example 3. […] (FIG. 6).

Tumour visualization with SPECT imaging (B16F10 mouse melanoma): clearly visualized
Tumour uptake / retention in SPECT images (SK-MEL-1 human melanoma): lower tumour uptake was observed
Structure (SMILES): CCCC[C@H](NC(=O)CN1CCC(NC(=O)[C@H](CCCCNC(=O)CN2CCN(CC(=O)O)CCN(CC(=O)O)CCN(CC(=O)O)CC2)NC(=O)[C@H](CCC(=O)O)NC(=O)CCCc2ccc(I)cc2)CC1)C(=O)N[C@H]1CC(=O)NCCCC[C@@H](C(N)=O)N(C)C(=O)[C@H](Cc2c[nH]c3ccccc23)NC(=O)[C@H](CCCNC(=N)N)N(C)C(=O)[C@@H](Cc2ccccc2)NC(=O)[C@H](Cc2c[nH]cn2)NC1=O [^177Lu-labeled CCZ01118, metal not drawn]

From US11395857B2, “Radiolabeled melanocortin 1 receptor-specific alpha-melanocyte-stimulating hormone analogues for imaging or therapy” (PROVINCIAL HEALTH SERVICES AUTHORITY, priority 2018, dated 2022)
